Data taken from patent US7335771B2, “Quinacridone derivatives as labelling reagents for fluorescence detection of biological materials” (GE Healthcare UK Limited, priority 2001, dated 2008).
Where a name gives a salt, the structure may show the parent alone.

Tests used:
Assay type in all cases: physicochemical
[1] = Fluorescence lifetime, time-correlated single photon counting (excitation 500 nm, detection 550 nm); conditions: excited at 500 nm, detection at 550 nm
Experimental: FIG. 2 is a plot showing the fluorescence lifetimes of certain dyes according to the invention. Fluorescence lifetimes of a range of dyes were determined by a time-correlated single photon counting technique using an Edinburgh Instruments FL900 CDT Time-Resolved Fluorometer. Samples were excited at 500 nm using a hydrogen-filled flashlamp. Detection was at 550 nm.

[2] = Fluorescence of the dinitro dye in solvents; conditions: in DMF, DMSO and methanol
[3] = Fluorescence lifetimes of dye and its ovalbumin conjugate in PBS
Experimental: The fluorescence lifetimes of 6-{7,14-dioxo-2,9-disulpho-7,14-dihydro-12H-quino[2,3-b]acridin-5-yl}hexanoic acid and its conjugate with ovalbumin (Conjugate A) was determined in PBS.

Structure (SMILES): CCCCCCn1c2ccc(Br)cc2c(=O)c2cc3c(cc21)c(=O)c1cc(Br)ccc1n3CCCCCC [2,9-Dibromo-5,12-di-n-hexylquinacridone, 2,9-dibromo-5,12-dihexylquinacridone]
- Lifetime ([1]; solvent CH2Cl2/MeOH): 16.9 nsec

Structure (SMILES): O=c1c2cc(S(=O)(=O)O)ccc2[nH]c2cc3c(=O)c4cc(S(=O)(=O)O)ccc4[nH]c3cc12 [2,9-Quinacridone disulphonic acid, Quinacridone-2,9-disulphonic acid, (di-potassium salt)]
- Lifetime ([1]; solvent water): 20.6 nsec

Structure (SMILES): CCCCCCn1c2ccccc2c(=O)c2cc3c(cc21)c(=O)c1cc(Br)ccc1n3CCCCCC [2-Bromo-5,12-di-n-hexylquinacridone, 2-Bromo-5,12-dihexylquinacridone]
- Lifetime ([1]; solvent CH2Cl2/MeOH): 20.4 nsec

Structure (SMILES): CCCCCCn1c2ccccc2c(=O)c2cc3c(cc21)c(=O)c1ccccc1n3CCCCCC [5,12-Di-n-hexylquinacridone, 5,12-Dihexylquinacridone]
- Lifetime ([1]; solvent CH2Cl2/MeOH): 26.5 nsec

Structure (SMILES): CCOC(=O)CCCCCn1c2ccc(Cl)cc2c(=O)c2cc3c(cc21)c(=O)c1cc(Cl)ccc1n3CCCCCC(=O)OCC [6-{2,9-Dichloro-12-(5-carboxypentyl)-7,14-dioxo-7,14-dihydro-12H-quino[2,3-b]acridin-5-yl}hexanoic acid, diethyl ester]
- Lifetime ([1]; solvent MeOH): 22.3 nsec

Structure (SMILES): CCOC(=O)CCCCCn1c2ccc(F)cc2c(=O)c2cc3c(cc21)c(=O)c1cc(F)ccc1n3CCCCCC(=O)OCC [6-{2,9-Difluoro-12-(5-carboxypentyl)-7,14-dioxo-7,14-dihydro-12H-quino[2,3-b]acridin-5-yl}hexanoic acid, diethyl ester]
- Lifetime ([1]; solvent MeOH): 21.4 nsec

Structure (SMILES): CCOC(=O)CCCCCn1c2ccc(OC)cc2c(=O)c2cc3c(cc21)c(=O)c1cc(OC)ccc1n3CCCCCC(=O)OCC [6-{2,9-Dimethoxy-12-(5-carboxypentyl)-7,14-dioxo-7,14-dihydro-12H-quino[2,3-b]acridin-5-yl}hexanoic acid, diethyl ester]
- Lifetime ([1]; solvent EtOH): 14.0 nsec

Structure (SMILES): CCOC(=O)CCCCCn1c2ccc([N+](=O)[O-])cc2c(=O)c2cc3c(cc21)c(=O)c1cc([N+](=O)[O-])ccc1n3CCCCCC(=O)OCC [6-{2,9-Dinitro-12-(5-carboxypentyl)-7,14-dioxo-7,14-dihydro-12H-quino[2,3-b]acridin-5-yl}hexanoic acid, diethyl ester]
- Fluorescence [2]: very weak or is non-fluorescent
- Lifetime ([1]; solvent CH2Cl2): 17.0 nsec

Structure (SMILES): CCOC(=O)CCCCCn1c2ccc(Br)cc2c(=O)c2cc3c(cc21)c(=O)c1cc(Br)ccc1n3CCCCCC(=O)OCC [6-{2,9-dibromo-12-(5-carboxypentyl)-7,14-dioxo-7,14-dihydro-12H-quino[2,3-b]acridin-5-yl}hexanoic acid, diethyl ester]
- Lifetime ([1]; solvent water): 18.0 nsec

Structure (SMILES): CCOC(=O)CCCCCn1c2ccc(C)cc2c(=O)c2cc3c(cc21)c(=O)c1cc(C)ccc1n3CCCCCC(=O)OCC [6-{2,9-dimethyl-12-(5-carboxypentyl)-7,14-dioxo-7,14-dihydro-12H-quino[2,3-b]acridin-5-yl}hexanoic acid, diethyl ester]
- Lifetime ([1]; solvent MeOH): 21.9 nsec

Structure (SMILES): O=C(O)CCCCCn1c2ccc(S(=O)(=O)O)cc2c(=O)c2cc3[nH]c4ccc(S(=O)(=O)O)cc4c(=O)c3cc21 [6-{7,14-Dioxo-2,9-disulpho-7,14-dihydro-12H-quino[2,3-b]acridin-5-yl}hexanoic acid]
- Lifetime (nsec) [3]: 20.1 nsec
- Lifetime ([1]; solvent water): 20.1 nsec

Structure (SMILES): CCn1c2ccc(S(=O)(=O)O)cc2c(=O)c2cc3c(cc21)c(=O)c1cc(S(=O)(=O)O)ccc1n3CCCCCC(=O)O [6-{12-ethyl-7,14-dioxo-2,9-disulpho-7,14-dihydro-12H-quino[2,3-b]acridin-5-yl}hexanoic acid]
- Lifetime ([1]; solvent water): 22.7 nsec

Structure (SMILES): O=c1c2cc3[nH]c4c(S(=O)(=O)O)cc(S(=O)(=O)O)cc4c(=O)c3cc2[nH]c2c(S(=O)(=O)O)cc(S(=O)(=O)O)cc12 [Quinacridone-2,4,9,11-tetrasulphonic acid (tetra-potassium salt)]
- Lifetime ([1]; solvent water): 22.1 nsec

Structure (SMILES): O=c1c2ccccc2[nH]c2cc3c(=O)c4ccccc4[nH]c3cc12 [Quinacridone]
- Lifetime ([1]; solvent DMSO): 22 nsec
